Test results as given in patent US6008209A, “Method of using vitamin D3 analogs with bis C-20 side chains” (Hoffmann-La Roche Inc., priority 1998, dated 1999).

Experiments:
ZR-75 cells = assay: Cell proliferation assay in ZR-75 breast cancer cells; format: cell-based, human; details: for IC50: Homo sapiens, ZR75, 240 h, ZR-75, 10 days, MTT, read-out: IC50 (half-maximal reduction in 570 nm absorbance)
Method: ZR-75 cells are human mammary carcinoma cells that are positive for estrogen receptors. The potential activity of vitamin D3 analogs against breast cancer was assessed from inhibition of proliferation of ZR-75 cells in culture.
ZR-75 cells were plated at 12,500 cells/well in 24-well plates and incubated at 37° C. in 5% CO2 /95% air in RPMI medium containing 10% fetal bovine serum and 2 mM glutamine. Stock solutions of vitamin D3 analogs were prepared at a concentration of 10 mM in absolute ethanol and stored at -20° C. under argon. One day after plating, ZR-75 cells were refed with either control medium or medium containing varying concentrations of the vitamin D3 analog.
The IC50 value was defined as the concentration of the vitamin D3 analog corresponding to half-maximal reduction in 570 nm absorbance.

murine leukemia = murine leukemia model systems; cited from earlier work
[1] = test system: steroid-induced bone loss; details: 0.5 to 1.0 micrograms/day plus calcium 1000 mg/day, with or without intranasal calcitonin 400 IU/day; cited from earlier work
bone = details: animal studies; cited from earlier work
MCF-7 cells = assay: Cell proliferation assay in MCF-7 breast cancer cells; format: cell-based, human; details: for IC50: Homo sapiens, MCF7, 168 h, MCF-7, 7 days, MTT, read-out: IC50 (half-maximal reduction in 570 nm absorbance)
Method: MCF-7 cells are human mammary carcinoma cells that are positive for estrogen receptors. The potential activity of vitamin D3 analogs against breast cancer was assessed from inhibition of proliferation of MCF-7 cells in culture.
MCF-7 cells were plated at 5000 cells/well in 96-well plates and incubated at 37° C. in 5% CO2 /95% air in Dulbecco's Modified Eagle Medium containing 10% fetal bovine serum 700 nM insulin, 2 mM glutamine, 0.1 mM MEM non-essential amino acids and 1 mM sodium pyruvate. Stock solutions of vitamin D3 analogs were prepared at a concentration of 10 mM in absolute ethanol and stored at -20° C. under argon. One day after plating, MCF-7 cells were refed with either control medium or medium containing varying concentrations of the vitamin D3 analog.
For each vitamin D3 analog, the IC50 value was determined from a graph relating the optical density at 570 nm to the concentration used. The IC50 value was defined as the concentration of the vitamin D3 analog corresponding to half-maximal reduction in 570 nm absorbance.

[2] = test system: parathyroid hormone (serum PTH); assay: Serum PTH suppression in rat renal insufficiency model (7/8 nephrectomy, secondary hyperparathyroidism); format: in vivo, Female Sprague Dawley rats; details: for PTH T = 1 - T = 0: po, seven days
Method: (§1) Female Sprague Dawley rats were anesthesized, their right kidney removed and 2-3 branches of the left renal artery were ligated to achieve 7/8 nephrectomy. They were placed on a high phosphorous diet (0.6% Ca and 0.8 phosphorous). Approximately 3-6 weeks after surgery, rats were bled to screen serum PTH levels and rats with PTH levels between 100-500 pg/ml were selected for the study.
(§2) 1 6 Formula Ia, 10 μg/kg/day, po
(§3) 2 6 Formula Ia, 1 μg/kg/day, po
(§4) 3 6 Formula Ia, 0.1 μg/kg/day, po
(§5) There was a pre-bleed (T=0) and each group was dosed daily for seven days by oral gavage with either the compound of Formula Ia (10, 1 or 0.1 μg/kg/day), vehicle control or 1,24(OH)2 vitamin D3 positive control. Compounds were predissolved in ethanol and diluted with vehicle (Miglyol 812) followed by evaporation of the ethanol.
(§6) After the last day of dosing, the animals were bled again (T=1) and sacrificed. Serum PTH assays were done with Nichols Institute Diagnostic Kit #40-2240. Serum calcium assays were done with Sigma Diagnostic Kit #587 with o-cresophthaleiri. Serum creatinine assays were done with Sigma Diagnostic Kit #1600-320 with […].

[3] = cited from earlier work
PTH synthesis = details: cited from earlier work
[4] = test system: postmenopausal osteoporosis; details: cited from earlier work
[5] = Serum calcium in rat renal insufficiency model (7/8 nephrectomy); format: in vivo, Female Sprague Dawley rats; parameters: Final Ca Levels: unit not given here; details: for Final Ca Levels: po, seven days, serum
Method: as §1, §2, §3, §4, §5, §6

Structure (SMILES): C=C1/C(=C\C=C2/CCC[C@]3(C)[C@@H]([C@H](C)CCCC(C)(C)O)CC[C@@H]23)C[C@@H](O)C[C@@H]1O [1,25(OH)2 vit. D3, 1,25-Dihydroxy-cholecalciferol]
- IC50 (ZR-75 cells): 13 nM
- anti-proliferative and differentiating effect (murine leukemia): not only an anti-proliferative effect, but also a differentiating effect
- steroid-induced bone loss [1]: prevented steroid-induced bone loss
- bone anabolic activity (bone): suggested bone anabolic activity
- IC50 (MCF-7 cells): 40 nM
- PTH T = 1 - T = 0 ([2]; 0.1 μg/kg (table 2; table 1: 0.2 μg/kg/day)): -66 pg/mL
- hypercalcemia in vivo ([3]; high dose treatment): hypercalcemia observed with high dose treatment
- therapeutic ratio ([3]; human usage): poor therapeutic ratio (hypercalciuria and hypercalcemia as well as nephrotoxicity)
- hypercalcemic effects ([3]; narrow therapeutic window, especially at high doses): potent hypercalcemic effects
- suppressive action on PTH synthesis (PTH synthesis): direct suppressive action on PTH synthesis
- lower rate of new vertebral fractures versus elemental calcium 1000 mg/day ([4]; 0.25 microgram twice daily, 3 years, mild to moderate disease): 3 fold
- hypercalcaemia ([4]; at recommended dosages): infrequent and mild
- therapeutic window: proximity of therapeutic and toxic doses ([4]; human, in vivo): close proximity of therapeutic and toxic doses
- tolerability ([4]; overall): well tolerated

Structure (SMILES): C=C1/C(=C\C=C2/CCC[C@]3(C)[C@@H](C(CCCC(C)(C)O)CCCC(C)(C)O)CC[C@@H]23)C[C@@H](O)C[C@@H]1O [Formula Ia, (1α,3β,5Z,7E)-21-(3-hydroxy-3-methylbutyl)-9,10-Secocholesta-5,7,10, (19)-triene-1,3,25-triol]
- IC50 (ZR-75 cells): 0.3 nM
- potency relative to 1,25-dihydroxy-cholecalciferol in inhibition of ZR-75 growth (ZR-75 cells; ZR-75): more than 40 times
- Final Ca Levels ([5]; 0.1 μg/kg/day): 10.20
- Final Ca Levels ([5]; 1 μg/kg/day): 10.35
- Final Ca Levels ([5]; 10 μg/kg/day): 11.97
- elevated calcium levels ([5]; in words): without causing elevated calcium levels
- IC50 (MCF-7 cells): 0.8 nM
- potency relative to 1,25-dihydroxy-cholecalciferol in inhibition of MCF-7 growth (MCF-7 cells; MCF-7): approximately 50 times
- PTH T = 1 - T = 0 ([2]; 0.1 μg/kg/day): 112 pg/mL
- PTH T = 1 - T = 0 ([2]; 1 μg/kg/day): -124 pg/mL
- PTH T = 1 - T = 0 ([2]; 10 μg/kg/day): -132 pg/mL
- suppressing the elevated levels of parathyroid hormone, versus 1,25(OH)2 vit. D3 ([2]; in words): more effective than 1,25(OH)2 vit. D3
